Entries after “also recorded” stand apart in the source; their conditions may differ.
How the values were obtained:
[1] = target: T1, human β2 adrenoceptor (Homo sapiens, UniProt P07550); experiment: SPR binding to captured β2 adrenoceptor, MNG detergent; conditions: for loss in activity / reduction of affinity versus parent fragment: SPR KD, MNG, I and J versus A, L versus F
[2] = target: T1, human β2 adrenoceptor; experiment: SPR binding to captured β2 adrenoceptor, DDM detergent; conditions: read-out: SPR ka

T1 sequence (P07550 whole entry, the tested form may be a part): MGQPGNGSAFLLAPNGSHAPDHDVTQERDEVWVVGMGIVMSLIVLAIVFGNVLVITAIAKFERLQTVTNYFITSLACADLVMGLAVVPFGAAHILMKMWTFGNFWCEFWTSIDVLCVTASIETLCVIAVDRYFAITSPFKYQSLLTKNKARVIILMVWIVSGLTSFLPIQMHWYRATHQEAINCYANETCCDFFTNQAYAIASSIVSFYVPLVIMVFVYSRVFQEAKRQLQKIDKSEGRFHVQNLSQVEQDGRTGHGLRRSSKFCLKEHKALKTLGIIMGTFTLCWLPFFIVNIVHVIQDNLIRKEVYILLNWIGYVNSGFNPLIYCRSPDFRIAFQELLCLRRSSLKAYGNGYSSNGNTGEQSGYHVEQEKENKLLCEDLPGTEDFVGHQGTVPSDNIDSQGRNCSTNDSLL

SMILES	loss in activity / reduction of affinity versus parent fragment [1]	also measured
Cc1ccc2nc(C(F)(F)F)cc(N3CCOCC3)c2c1 [K]		KD (result in words) ([1]; MNG detergent): ablation of activity; also recorded: no binding
c1cc(N2CCNCC2)ccn1 [L]	400 fold	
CC(Cc1ccc(O)cc1)NCC(O)c1cc(O)cc(O)c1 (centres unmarked) [fenoterol]		kon [2]: 545000 M⁻¹ s⁻¹
Cc1ccc2nc(C(F)(F)F)cc(N3CCC(F)(F)CC3)c2c1 [J]	2000 fold	
Cc1ccc2nc(C(F)(F)F)cc(N3CCN(C)CC3)c2c1 [I]	50 fold	

Source: paper PMC3892729 (ACS Medicinal Chemistry Letters, 2013)
